Source: US6875438B2, “Preparations for topical administration of substances having antiandrogenic activity” (Aventis Pharma Deutschland GmbH, priority 2002, dated 2005)

Legend:
[1] = system: cells of the dermal papilla of occipital scalp; assay: Hydrolysis of compound 2 to compound 1 in cultivated dermal papilla cells (HPLC of media extracts); format: in vitro ADME, human; conditions: skin cells, in particular cells of the dermal papilla
Method: Monolayer cultures of juvenile prepuce keratinocytes and fibroblasts and of cells of the dermal papilla of occipital scalp were incubated with compound 2 in a concentration of 10^−5 M under standard conditions (5% CO2, 37° C.) for 24 h. The cell culture medium was then extracted with chloroform. The organic phase was evaporated and the residue was taken up in acetonitrile and investigated by HPLC analysis for its content of compounds 1 and 2.

[2] = Microscopic investigations for crystallization of active ingredient in the preparation; format: physicochemical; conditions: lipid nanoparticle preparations

CCCCCCCCCCCCCC(=O)OCCCCN1C(=O)N(c2ccc(C#N)c(C(F)(F)F)c2)C(=O)C1(C)C [compound 2]
Conversion of compound 2 into compound 1 (in words) [1]: significant conversion
Crystallization of compound 2 in the preparation (microscopy) [2]: no indications of crystallization
